According to article PMC4273980 (ACS Chemical Biology, 2014):
Entries after “also recorded” stand apart in the source; their conditions may differ.

Assays:
[1] = molecular target: T1, P2Y14R (Homo sapiens, UniProt Q15391); assay: Flow cytometry; conditions: 10 μM competing ligand, 30 min preincubation; 10 nM 30
T1 sequence (Q15391 1-338): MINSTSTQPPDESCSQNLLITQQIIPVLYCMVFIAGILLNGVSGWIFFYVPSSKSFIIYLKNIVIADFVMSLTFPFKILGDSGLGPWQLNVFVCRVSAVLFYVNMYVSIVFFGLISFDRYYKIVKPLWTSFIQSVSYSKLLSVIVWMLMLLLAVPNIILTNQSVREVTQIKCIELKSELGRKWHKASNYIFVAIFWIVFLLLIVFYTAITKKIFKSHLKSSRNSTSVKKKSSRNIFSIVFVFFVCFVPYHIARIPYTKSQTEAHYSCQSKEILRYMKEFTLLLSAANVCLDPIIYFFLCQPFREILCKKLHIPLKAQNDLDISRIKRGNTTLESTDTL

[2] = molecular target: T2, hP2Y14R (Homo sapiens, UniProt Q15391); assay: Antagonism of 2; format: cell-based
T2 sequence (Q15391 1-338): T1 sequence (Q15391 1-338)

| SMILES | effect of competing ligand on labeling of P2Y14R-CHO cells by 30, in words [1] | Ki [2] | further results |
| --- | --- | --- | --- |
| O=c1ccn([C@@H]2O[C@H](COP(=O)(O)OP(=O)(O)O)[C@@H](O)[C@H]2O)c(=O)[nH]1 [compound 1, uridine-5′-diphosphate] | largely prevented the labeling | – | – |
| O=C(O)c1cc(-c2ccc(C3CCNCC3)cc2)c2ccc(-c3ccc(C(F)(F)F)cc3)cc2c1 [compound 6, 4-(4-(piperidin-4-yl)-phenyl)-7-(4-(trifluoromethyl)-phenyl)-2-naphthoic acid] | largely prevented the labeling | – | – |
| CCOC(=O)c1cc(-c2ccc(C3CCNCC3)cc2)c2ccc(-c3ccc(C(F)(F)F)cc3)cc2c1 [compound 19] | – | 120 ± 8 nM | fold weaker as an antagonist than free carboxylate analogue 6 ([2]; relative to 6): 400 fold |
| C#CCCN1CCC(c2ccc(-c3cc(C(=O)O)cc4cc(-c5ccc(C(F)(F)F)cc5)ccc34)cc2)CC1 [compound 20] | – | 2.7 ± 1.2 nM | – |
| C#CCCCCN1CCC(c2ccc(-c3cc(C(=O)O)cc4cc(-c5ccc(C(F)(F)F)cc5)ccc34)cc2)CC1 [compound 22] | – | 13 ± 1.1 nM | – |
| C=C1CCC[N+]12CCC(c1ccc(-c3cc(C(=O)[O-])cc4cc(-c5ccc(C(F)(F)F)cc5)ccc34)cc1)CC2 (centres unmarked) [compound 23] | – | 2 ± 0.2 nM | – |
| C#CCCC(=O)N1CCC(c2ccc(-c3cc(C(=O)O)cc4cc(-c5ccc(C(F)(F)F)cc5)ccc34)cc2)CC1 [compound 24] | – | 6.7 ± 2.2 nM | – |
| C#CCCCCC(=O)N1CCC(c2ccc(-c3cc(C(=O)O)cc4cc(-c5ccc(C(F)(F)F)cc5)ccc34)cc2)CC1 [compound 25] | – | 8.3 ± 1.9 nM | – |

More lines, main results first:

| effect of competing ligand on labeling of P2Y14R-CHO cells by 30, in words [1] | Ki [2] | SMILES | further results |
| --- | --- | --- | --- |
| – | 26 ± 6 nM | CC(C)(C)OC(=O)NCCCN1CCC(c2ccc(-c3cc(C(=O)O)cc4cc(-c5ccc(C(F)(F)F)cc5)ccc34)cc2)CC1 [compound 26] | – |
| – | 14 ± 2.4 nM | NCCCN1CCC(c2ccc(-c3cc(C(=O)O)cc4cc(-c5ccc(C(F)(F)F)cc5)ccc34)cc2)CC1 [compound 27] | – |
| – | > 100 nM | O=C(CCCCCNC(=O)COc1ccc(/C=C/C2=CC3=Cc4ccc(-c5cccs5)n4[B-](F)(F)[N+]3=C2)cc1)NCCCn1cc(CCCCN2CCC(c3ccc(-c4cc(C(=O)O)cc5cc(-c6ccc(C(F)(F)F)cc6)ccc45)cc3)CC2)nn1 [compound 32] | antagonist potency / affinity at P2Y14R, in words ([2]; P2Y14R-CHO cells): much weaker; also recorded: low affinity |
| largely prevented the labeling | – | O=C(O)[C@H]1O[C@H](OP(=O)(O)OP(=O)(O)OC[C@H]2O[C@@H](n3ccc(=O)[nH]c3=O)[C@H](O)[C@@H]2O)[C@H](O)[C@@H](O)[C@@H]1O [compound 36, uridine-5′-diphosphoglucuronic acid] | – |
| failed at 10 μM to prevent binding of 30 | – | CNc1ncnc2c1ncn2[C@H]1C[C@H](OP(=O)(O)O)[C@@H](COP(=O)(O)O)O1 [compound 37] | – |
| failed at 10 μM to prevent binding of 30 | – | S=C=Nc1cccc(NC(=S)NCCCCNC(=S)Nc2cccc(N=C=S)c2)c1 [compound 38] | – |
| only a minor reduction | – | Cc1ccc(C(=O)Nc2ccc(S(=O)(=O)O)c3cc(S(=O)(=O)O)cc(S(=O)(=O)O)c23)cc1NC(=O)c1cccc(NC(=O)Nc2cccc(C(=O)Nc3cc(C(=O)Nc4ccc(S(=O)(=O)O)c5cc(S(=O)(=O)O)cc(S(=O)(=O)O)c45)ccc3C)c2)c1 [suramin] | – |
